# Measurements taken from patent publication US20180098997A1, “PHARMACEUTICAL DOSES FOR A BROMODOMAIN AND EXTRATERMINAL PROTEIN (BET) INHIBITOR” (Oncoethix GmbH, priority 2015, published 2018).
# Where two headings read alike, the source gives them in different places.
# How the values were obtained:
# [1] = Phase I dose escalation population pharmacokinetics in patients with hematologic malignancies (plasma UPLC-MS/MS, Monolix PPK model); assay type: in vivo, human; details: for CL [mean +/- SD] / V [mean +/- SD]: apparent (F set to 1); for Cmin [mean +/- SD]: predose at Day 8; for AUC(0-t): read-out: AUC0-24 hr [mean +/- SD]; for Cmax: read-out: Cmax [mean +/- SD]
# Method: Solid dispersions were prepared using the compound of Formula (1) and hydroxylpropylmethylcellulose acetate succinate (HPMCAS) at both 25% and 50% of compound loading. Solid dispersions were prepared by a solvent evaporation method, using spray-drying followed by secondary drying in a low-temperature convection oven. Dispersions containing 10 mg, 20 mg, 40 mg, 80 mg, 120 mg and 160 mg, of the compound, were prepared into capsules and administered to patients Pharmacokinetics (PK) of the compound of Formula (1) as single agent were characterized in patients with hematologic malignancies, including a population pharmacokinetic modeling. A multicenter, dose escalation study in cohorts of 3 to 6 patients with acute leukemia or other hematologic malignancies was performed with a dose escalation step followed by expansion cohorts at the recommended dose. Patients received oral compound of Formula (1) from 10 to 160 mg according to different schedules. Schedules included once a day dosing with 21-day cycles, acute leukemia (AL); 14 days on/7 days off, hematologic malignancies (OHM). Continuous PK blood samples from 7 time points over 24 hours post-administration were collected on day 1 of cycle 1 for the first 3 patients per DL, and 5 time points over 8 hours post-administration for other patients at this DL. Residual sampling before administration on days 8, 15 and 22 was performed in all patients. Compound plasma concentrations were measured using validated ultra-performance liquid chromatography with tandem mass spectrometry detection with a concentration range 1-250 ng/mL, with a small plasma volume for analysis (50 μL). Analyses and population PK (PPK) modeling were performed with the nonlinear mixed effect modeling software program Monolix version 4.3. The following parameters were calculated: absorption constant (Ka); apparent distribution volume (V/F); apparent clearance (CL/F) and lean body mass (LBM; calculated considering patient sex, weight and height). Parameters were estimated by computing the maximum likelihood estimator without linearization using the stochastic approximation expectation maximization (SAEM) algorithm combined with a Markov Chain Monte Carlo (MCMC) procedure. The number of MCMC chains was fixed at 10 for all estimations. A constant error model was used to describe residual and Between-Subject Variability (BSV, η) were ascribed to an exponential model. In the absence of intravenous data, the initial bioavailability (F) was set to 1, meaning that clearance (CL) and volume of distribution (V) should be interpreted as the apparent clearance (CL/F) and apparent volume of distribution (V/F), respectively. Eighty-five patients enrolled and treated and randomized to six dose levels (10, 20, 40, 80, 120 and 160 mg) once-a-day and 40 mg twice-a-day. Among them, 81 patients with 630 plasma concentrations (607+23 BLQ) were evaluable for PK assessment. A 1-compartment open model adequately described the total compound concentration-time curve. […] The absorption phase was linear and Tmax was between 1 and 4 h. […] In the PPK study, the best descriptive model was obtained when LBM was considered in the analysis. A correlation between CL/F and V/F was also observed for compound. A total of 81 patients (52 male, 29 female) were evaluable for PK (40 AL patients, 41 OHM patients), with a total of […] available for analysis.
# [2] = tested on: leukemia, diffuse large B-cell lymphoma, other lymphomas or multiple myeloma; test: Objective responses in patients; assay type: in vivo, human; details: patients receiving 10 or 20 mg per day
# Text: With regard to the compound of Formula (1), an effective dose is a dose that inhibits a protein in the bromodomain and extraterminal protein family to a sufficient degree that a desired objective response is observed. An objective response may be a complete response (all detectable tumor or blast cell has disappeared), a partial response (roughly corresponds to at least a 50% decrease in the total tumor volume or blast cell amount but with evidence of some residual disease still remaining), or a minor response (roughly means a small amount of tumor shrinkage or blast cell reduction). Thus, an objective response can include a response where blast cell amount reduction is observed, or where tumor shrinkage is observed in the patient.
# (§1) Doses of the compound of Formula (1) were administered to patients having leukemia, hematologic malignancies, diffuse large B-cell lymphoma, other lymphomas or multiple myeloma, and dose limiting toxicity and objective responses were observed.
# Compound of Formula (1) once-a-day doses of 10, 20, 40, 80, 120 and 160 mg and twice-a-day doses of 40 mg were administered to patients with leukemia, diffuse large B-cell lymphoma, other lymphomas or multiple myeloma. In this study, objective responses were not observed in patients receiving 10 or 20 mg per day.
# [3] = Dose limiting toxicity in patients with acute leukemia or hematologic malignancies; assay type: in vivo, human
# Text: Dose-limiting toxicity corresponds to side-effect toxicity such that the side-effects are severe enough to impose restrictions on, or to prevent administration of, the dose. Clinically significant toxicity includes but is not limited to intolerable levels in a patient of thrombocytopenia, neutropenia, fatigue, diarrhea, anemia, mucositis, and other side effects known to be associated with elevated levels of bromodomain and extraterminal protein inhibitors.
# as §1
# Compound of Formula (1) dose-limiting toxicity was evaluated in patients with acute leukemia and hematologic malignancies.
# [4] = tested on: BET (bromodomains and extraterminal) proteins, which include BRD2, BRD3, and BRD4; details: U.S. 2010/0286127 A1; cited from earlier work
# [5] = 10 mg QD oral, n = 8, derived from EBE
# [6] = 20 mg QD oral, n = 6, derived from EBE
# [7] = 40 mg BID oral, n = 13, derived from EBE
# [8] = 40 mg QD oral, n = 8, derived from EBE
# [9] = 80 mg QD oral, n = 11, derived from EBE
# [10] = 120 mg QD oral, n = 30, derived from EBE
# [11] = 160 mg QD oral, n = 5, derived from EBE
# [12] = PPK structural model, 1-compartment open model, 81 patients, all dose levels
smiles,measurement,setting,value
"Cc1sc2c(c1C)C(c1ccc(Cl)cc1)=N[C@@H](CC(=O)Nc1ccc(O)cc1)c1nnc(C)n1-2 [Compound of Formula (1), (S)-2-(4-(4-chlorophenyl)-2,3,9-trimethyl-6H-thieno[3,2-f][1,2,4]triazolo[4,3-a][1,4]diazepin-6-yl)-N-(4-hydroxyphenyl)acetamide]",CL [mean +/- SD],[1]; [5],8.53 L/h
same,V [mean +/- SD],[1]; [5],72.1 L
same,Cmin [mean +/- SD],"[1]; 10 mg QD oral, n = 8, observed values",22.5 ng/mL
same,CL [mean +/- SD],[1]; [6],7.06 L/h
same,V [mean +/- SD],[1]; [6],57.6 L
same,Cmin [mean +/- SD],"[1]; 20 mg QD oral, n = 6, observed values",50.5 ng/mL
same,CL [mean +/- SD],[1]; [7],6.57 L/h
same,V [mean +/- SD],[1]; [7],57.46 L
same,Cmin [mean +/- SD],"[1]; 40 mg BID oral, n = 13, observed values",351.16 ng/mL
same,CL [mean +/- SD],[1]; [8],7.66 L/h
same,V [mean +/- SD],[1]; [8],58.65 L
same,Cmin [mean +/- SD],"[1]; 40 mg QD oral, n = 8, observed values",47.7 ng/mL
same,CL [mean +/- SD],[1]; [9],7.83 L/h
same,V [mean +/- SD],[1]; [9],71.14 L
same,Cmin [mean +/- SD],"[1]; 80 mg QD oral, n = 11, observed values",113.7 ng/mL
same,CL [mean +/- SD],[1]; [10],7.81 L/h
same,V [mean +/- SD],[1]; [10],63.32 L
same,Cmin [mean +/- SD],"[1]; 120 mg QD oral, n = 30, observed values",325.4 ng/mL
same,CL [mean +/- SD],[1]; [11],12.10 L/h
same,V [mean +/- SD],[1]; [11],96.66 L
same,Cmin [mean +/- SD],"[1]; 160 mg QD oral, n = 5, observed values",215.0 ng/mL
same,absorption constant (Ka),[1]; [12],0.74 h⁻¹
same,apparent clearance (CL/F),[1]; [12],8.45 L/h
same,apparent distribution volume (V/F),[1]; [12],71.7 L
same,half-life,"[1]; both sexes, human, plasma, oral, all patients, read-out: Mean elimination half-life (converted)",5.8 h
same,AUC(0-t),"[1]; both sexes, human, plasma, po, 10 mg, 10 mg QD oral, n = 8, derived from EBE",1190 ng·h/mL
same,AUC(0-t),"[1]; both sexes, human, plasma, po, 20 mg, 20 mg QD oral, n = 6, derived from EBE",2930 ng·h/mL
same,AUC(0-t),"[1]; both sexes, human, plasma, po, 40 mg, 40 mg BID oral, n = 13, values doubled to mimic 80 mg (2 × 40 mg)",13100 ng·h/mL
same,AUC(0-t),"[1]; both sexes, human, plasma, po, 40 mg, 40 mg QD oral, n = 8, derived from EBE",5500 ng·h/mL
same,AUC(0-t),"[1]; both sexes, human, plasma, po, 80 mg, 80 mg QD oral, n = 11, derived from EBE",12500 ng·h/mL
same,AUC(0-t),"[1]; both sexes, human, plasma, po, 120 mg, 120 mg QD oral, n = 30, derived from EBE",17200 ng·h/mL
same,AUC(0-t),"[1]; both sexes, human, plasma, po, 160 mg, 160 mg QD oral, n = 5, derived from EBE",13900 ng·h/mL
same,Cmax,"[1]; both sexes, human, plasma, 40 mg BID oral, n = 13, derived from EBE",550 ng/mL
same,Cmax,"[1]; both sexes, human, plasma, 80 mg QD oral, n = 11, derived from EBE",1150 ng/mL
same,Cmax,"[1]; both sexes, human, plasma, 120 mg QD oral, n = 30, derived from EBE",1470 ng/mL
same,Cmax,"[1]; both sexes, human, plasma, 160 mg QD oral, n = 5, derived from EBE",1290 ng/mL
same,Tmax,"[1]; both sexes, human, plasma, oral, all dose levels",1 to 4 h
same,half-life,"[1]; human, plasma, po, 10 mg, 10 mg QD oral, n = 8, derived from EBE, read-out: T1/2 [mean +/- SD] (converted)",5.84 h
same,half-life,"[1]; human, plasma, po, 20 mg, 20 mg QD oral, n = 6, derived from EBE, read-out: T1/2 [mean +/- SD] (converted)",5.63 h
same,half-life,"[1]; human, plasma, po, 40 mg, 40 mg BID oral, n = 13, derived from EBE, read-out: T1/2 [mean +/- SD] (converted)",6.22 h
same,half-life,"[1]; human, plasma, po, 40 mg, 40 mg QD oral, n = 8, derived from EBE, read-out: T1/2 [mean +/- SD] (converted)",5.33 h
same,half-life,"[1]; human, plasma, po, 80 mg, 80 mg QD oral, n = 11, derived from EBE, read-out: T1/2 [mean +/- SD] (converted)",5.51 h
same,half-life,"[1]; human, plasma, po, 120 mg, 120 mg QD oral, n = 30, derived from EBE, read-out: T1/2 [mean +/- SD] (converted)",5.91 h
same,half-life,"[1]; human, plasma, po, 160 mg, 160 mg QD oral, n = 5, derived from EBE, read-out: T1/2 [mean +/- SD] (converted)",5.48 h
same,Cmax,"[1]; human, plasma, 10 mg QD oral, n = 8, derived from EBE",131 ng/mL
same,Cmax,"[1]; human, plasma, 20 mg QD oral, n = 6, derived from EBE",275 ng/mL
same,Cmax,"[1]; human, plasma, 40 mg QD oral, n = 8, derived from EBE",627 ng/mL
same,objective responses,[2],not observed
same,"Dose Limiting Toxicity, observed toxicity","[3]; Acute Leukemia, 20 mg QD, 6 patients",0 patients
same,"Dose Limiting Toxicity, observed toxicity","[3]; Acute Leukemia, 40 mg BID, 6 patients",0 patients
same,"Dose Limiting Toxicity, observed toxicity","[3]; Acute Leukemia, 40 mg QD, 4 patients",0 patients
same,"Dose Limiting Toxicity, observed toxicity","[3]; Acute Leukemia, 80 mg QD, 4 patients",0 patients
same,"Dose Limiting Toxicity, observed toxicity","[3]; Acute Leukemia, 120 mg QD, 11 patients",0 patients
same,"Dose Limiting Toxicity, observed toxicity","[3]; Acute Leukemia, 160 mg QD, 5 patients (diarrhea and fatigue/anorexia)",2 patients
same,"Dose Limiting Toxicity, observed toxicity","[3]; Older Adult Hematologic Malignancies, 20 mg QD, 6 patients",0 patients
same,"Dose Limiting Toxicity, observed toxicity","[3]; Older Adult Hematologic Malignancies, 40 mg BID, 6 patients (thrombocytopenia)",5 patients
same,"Dose Limiting Toxicity, observed toxicity","[3]; Older Adult Hematologic Malignancies, 40 mg QD, 3 patients",0 patients
same,"Dose Limiting Toxicity, observed toxicity","[3]; Older Adult Hematologic Malignancies, 80 mg QD, 7 patients (thrombocytopenia)",2 patients
same,"Dose Limiting Toxicity, observed toxicity","[3]; Older Adult Hematologic Malignancies, 120 mg QD, 18 patients (thrombocytopenia, hypo Na, neutropenia, fatigue, diarrhea, mucositis)",10 patients
same,inhibition of binding of acetylated histone H4 to BET proteins,[4],inhibit the binding
